According to patent US12258321B1 (University of Jeddah, priority 2024, dated 2025):
Blank lines part the entries; values can stand above or below the compound they belong to.

How the values were obtained:
MCF-7 cells = assay: MTT cytotoxicity test on MCF-7 breast cancer cells; assay type: cell-based, human; conditions: for IC50: Homo sapiens, MCF7, 24 h, read-out: IC50, cytotoxic activity against MCF7 breast cancer cells
Procedure: The MCF-7 breast cancer cell lines were purchased from VACSERA Tissue Culture Unit (Giza, Egypt). MCF-7 cells were cultured in RPMI medium supplemented with 2 mM glutamine and 10% fetal bovine serum. Both cell cultures included […] streptomycin and 100 units/ml penicillin and were kept in a humidified atmosphere with 5% CO2 at 37° C.
All experiments were performed in triplicate. Data were given as mean±SD.

p-MEK1/2 = assay: Western blot of p-MEK1/2 in EGF-stimulated MCF7 cells; assay type: cell-based, human; conditions: MCF7 cells stimulated with EGF for 30 minutes
Procedure: (§1) MCF-7 cells were exposed to compounds Comp-1 and Comp-6 for a period of 24 h, after which western blot analysis was conducted using a previously established protocol^21. To assess the release of cytochrome c, cytosolic and mitochondrial fractions were prepared in accordance with the methods outlined by Kawiak et al^21. Specific primary antibodies were utilized viz; anti-β-actin (1:1,000) (Cell Signaling, Danvers, MA, USA), anti-Bcl-2, anti-Bax, and anti-Mcl-1 (1:250) (Santa Cruz, Heidelberg, Germany), anti-ERK1/2, anti-MEK1/2, anti-p-ERK1/2, and anti-p-MEK1/2 (1:1,000) (Cell Signaling), and anti-cytochrome c (1:5,000) (Abcam, UK), and membranes were subjected to an overnight incubation with these antibodies at 4° C. This was followed by a 1 h incubation with HRP-conjugated secondary antibodies (1:2000) (Cell Signaling). The levels of protein were then determined using chemiluminescence (ChemiDoc; Bio-Rad, Waltham, MA, USA) with an HRP substrate (Thermo Scientific, MA, USA).
(§2) To investigate the impact of exemplary compounds on the cancer-promoting MAPK pathway in MCF7 breast cancer cells, we stimulated the cells with epidermal growth factor (EGF) for 30 minutes to induce p-ERK1/2 and p-MEK1/2 protein expression.

MCL-1 [1] = target: T1, MCL-1 (Homo sapiens, UniProt Q07820); assay: MCL-1 inhibition by TR-FRET assay (cell-free); assay type: binding; conditions: read-out: IC50 against MCL-1
T1 construct: purchased BPS Bioscience
Procedure: (§3) The effectiveness of inhibiting the MCL-1 and BCL-2 proteins was evaluated using specific assay kits (BPS Bioscience, Sandiego, CA) and corresponding ligands for each protein. […] Measurements were taken of Tb-donor emission at 620 nm followed by dye-acceptor emission at 665 nm, and data analysis was performed using the TR-FRET ratio (665 nm emission/620 nm emission). The FRET value from the positive control was considered as full activity (100%) and the FRET value from the negative control was considered as zero percent activity. Then, % inhibitory activity of test compounds was calculated by the equation: % Activity=FRETS−FRETneg/FRETP−FRETneg×100%
(§4) Where FRETS, FRETneg, and FRETp are sample FRET, negative control FRET, and positive control FRET, respectively. The IC50 values of the test compounds were calculated by nonlinear regression analysis on GraphPad Prism 5 (GraphPad Inc., USA).

BCL-2 [2] = assay: Western blot of BCL-2 expression in MCF7 cells; assay type: cell-based, human; conditions: 24 hours, vs untreated
Procedure: as §1
(§5) The cytotoxic mechanisms of the exemplary compounds Comp-1 and Comp-6 were investigated. Given that apoptosis is a common mechanism of action for many cancer therapies, we analyzed the levels of apoptotic markers BAX, BCL-2 and MCL-1 after treating MCF7 cells with Comp-1 and Comp-6 for 24 hours. Western blot analysis was performed on cell lysates and compared to untreated cell lysates.

BAX = assay: Western blot of BAX level in MCF7 cells; assay type: cell-based, human; conditions: 24 hours
Procedure: as §1, §5

p-ERK1/2 = assay: Western blot of p-ERK1/2 in EGF-stimulated MCF7 cells; assay type: cell-based, human; conditions: MCF7 cells stimulated with EGF for 30 minutes
Procedure: as §1, §2

BCL-2 [3] = target: T2, BCL-2 (Homo sapiens, UniProt P10415); assay: BCL-2 inhibition by TR-FRET assay (cell-free); assay type: binding; conditions: read-out: IC50 against BCL-2
T2 construct: purchased BPS Bioscience
Procedure: as §3, §4

MCL-1 [4] = assay: Western blot of MCL-1 expression in MCF7 cells; assay type: cell-based, human; conditions: 24 hours, vs untreated
Procedure: as §1, §5

T1 sequence (Q07820 whole entry): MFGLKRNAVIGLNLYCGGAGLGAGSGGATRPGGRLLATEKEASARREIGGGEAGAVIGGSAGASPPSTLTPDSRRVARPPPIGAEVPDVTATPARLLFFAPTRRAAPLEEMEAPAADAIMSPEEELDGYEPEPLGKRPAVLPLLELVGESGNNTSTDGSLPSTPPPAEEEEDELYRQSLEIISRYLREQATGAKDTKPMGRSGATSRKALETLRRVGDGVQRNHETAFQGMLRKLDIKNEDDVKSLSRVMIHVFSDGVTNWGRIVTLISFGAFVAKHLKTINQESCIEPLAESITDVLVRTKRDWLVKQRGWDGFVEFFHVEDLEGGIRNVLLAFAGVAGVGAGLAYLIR
T2 sequence (P10415 whole entry): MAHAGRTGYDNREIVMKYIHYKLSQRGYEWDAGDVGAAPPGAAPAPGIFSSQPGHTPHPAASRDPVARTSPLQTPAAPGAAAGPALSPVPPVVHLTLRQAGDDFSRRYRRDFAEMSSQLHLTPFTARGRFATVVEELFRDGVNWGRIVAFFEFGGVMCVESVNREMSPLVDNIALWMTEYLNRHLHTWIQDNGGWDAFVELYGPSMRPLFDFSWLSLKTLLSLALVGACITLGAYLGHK

Structure (SMILES): O=C(Cc1ccc(-n2cc(COCc3ccccc3)nn2)cc1)NCc1ccccc1 [Comp-5, N-benzyl-2-(4-(4-((benzyloxy)methyl)-1H-1,2,3-triazol-1-yl)phenyl)acetamide]
- IC50 (MCF-7 cells): 3200 nM

- IC50 (MCL-1 [1]): 365 nM
- IC50 (BCL-2 [3]): 507 nM
Structure (SMILES): O=C(Cc1ccc(-n2cc(CO)nn2)cc1)NCc1ccccc1 [Comp-1, N-benzyl-2-(4-(4-(hydroxymethyl)-1H-1,2,3-triazol-1-yl)phenyl)acetamide]
- reduction of p-MEK1/2 signal (p-MEK1/2): 65.3%
- IC50 (MCF-7 cells): 1100 nM
- potency relative to the reference drug Staurosporine (fold higher) (MCF-7 cells; MCF7 cytotoxicity IC50 ratio): approximately 5 fold
- reduction of BCL-2 expression (BCL-2 [2]): 65.3%
- BAX increase compared to untreated cells (Control) (BAX): more than five-fold
- reduction of p-ERK1/2 signal (p-ERK1/2): 46.1%
- reduction of MCL-1 expression (MCL-1 [4]): 65.4%

Structure (SMILES): O=C(Cc1ccc(-n2cc(COc3cccc4ccccc34)nn2)cc1)NCc1ccccc1
- reduction of p-MEK1/2 signal (p-MEK1/2): 55.9%
- IC50 (MCL-1 [1]): 756 nM
- IC50 (MCF-7 cells): 1880 nM
- reduction of BCL-2 expression (BCL-2 [2]): 55.9%
- BAX increase compared to untreated cells (Control) (BAX): nine-fold
- reduction of p-ERK1/2 signal (p-ERK1/2): 50.7%
- IC50 (BCL-2 [3]): 1920 nM
- reduction of MCL-1 expression (MCL-1 [4]): 43.7%
